According to paper PMC8778670, “Identification of an Orally Bioavailable, Brain-Penetrant Compound with Selectivity for the Cannabinoid Type 2 Receptor” (Molecules, 2022):

What was measured:
[1] = molecular target: T1, human CB1 receptors (Homo sapiens, UniProt P21554); test: Cannabinoid receptor [3H]CP-55,940 displacement binding assay, CB1; details: 1 h; 10 µM compound; CHO cell membranes, 2.5 nM radioligand; read-out: Displacement of [3H]CP-55,940 from CB1
T1 construct: expressed in transfected cells; host or cells: CHO cells
Method: (§1) The affinities of the compounds for CB1 and CB2 receptors were examined using displacement assays, as previously described. Briefly, cell membranes from CHO cells expressing human CB1 or human CB2 receptors were isolated using differential centrifugation. Test compounds reconstituted in DMSO and were incubated with the isolated membrane in binding buffer (50 mM Tris-HCl, 1 mM EDTA, 3 mM MgCl2, 5 mg/mL BSA, pH 7.4) along with 2.5 nM [^3H]CP-55,940. Total binding was assessed in the presence of equal concentration of DMSO, while non-specific binding was determined in the presence of 10 μM CP-55,940, and background binding was determined in wells lacking membrane. Following incubation at 30 °C for 60 min, the binding reactions were terminated by vacuum filtration through Whatman GF/C filters. The filters were then washed twice with ice-cold buffer (50 mM Tris-HCl, 1 mg/mL BSA). Liquid scintillation cocktail was added to each well and the total tritiated counts per minute were analyzed using a TopCount scintillation counter. Background counts were subtracted from all wells and the percent displacement from total binding was calculated.
(§2) The compounds were initially screened at 10 μM concentrations. If they produced at least ±30% displacement of the radioligand, then full competition curves were constructed. Ki values were calculated using GraphPad Prism (San Diego, CA, USA) and Kd values determined using a 1 site fit. All assays were run in technical and biological replicates so that the n = 5–6.

[2] = molecular target: T2, human CB2 receptors (Homo sapiens, UniProt P34972); test: Cannabinoid receptor [3H]CP-55,940 displacement binding assay, CB2; details: for inhibition at 10 µM: 1 h, 10 µM compound, CHO cell membranes, 2.5 nM radioligand, read-out: Displacement of [3H]CP-55,940 from CB2; for displacement of [3H]CP-55,940 in the competitive radioligand screen: 10 µM, receptor (CB1 or CB2) not given
T2 construct: expressed in transfected cells; host or cells: CHO cells
Method: as §1, §2

T1 sequence (P21554 whole entry): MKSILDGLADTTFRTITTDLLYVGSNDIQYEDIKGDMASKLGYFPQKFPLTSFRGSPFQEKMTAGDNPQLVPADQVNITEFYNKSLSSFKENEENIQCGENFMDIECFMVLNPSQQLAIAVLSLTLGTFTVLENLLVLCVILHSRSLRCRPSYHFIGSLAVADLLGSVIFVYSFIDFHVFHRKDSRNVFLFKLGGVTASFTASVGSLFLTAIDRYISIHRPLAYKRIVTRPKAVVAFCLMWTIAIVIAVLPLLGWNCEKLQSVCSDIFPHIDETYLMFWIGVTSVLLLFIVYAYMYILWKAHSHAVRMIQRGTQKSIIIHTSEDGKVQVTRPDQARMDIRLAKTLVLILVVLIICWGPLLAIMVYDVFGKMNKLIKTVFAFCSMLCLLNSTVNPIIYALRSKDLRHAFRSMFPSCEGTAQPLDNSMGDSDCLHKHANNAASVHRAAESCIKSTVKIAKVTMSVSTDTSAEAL
T2 sequence (P34972 whole entry): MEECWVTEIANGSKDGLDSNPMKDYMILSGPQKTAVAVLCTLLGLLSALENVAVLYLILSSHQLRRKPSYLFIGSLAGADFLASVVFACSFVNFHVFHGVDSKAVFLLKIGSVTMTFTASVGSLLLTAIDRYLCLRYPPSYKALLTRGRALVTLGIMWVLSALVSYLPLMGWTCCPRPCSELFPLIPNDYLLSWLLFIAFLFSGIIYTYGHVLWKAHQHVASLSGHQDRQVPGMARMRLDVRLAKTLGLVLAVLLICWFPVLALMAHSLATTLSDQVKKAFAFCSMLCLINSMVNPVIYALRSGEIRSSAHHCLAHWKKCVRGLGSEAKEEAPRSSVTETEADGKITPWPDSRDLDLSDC

| Structure (SMILES) | inhibition at 10 µM [1] [%] | inhibition at 10 µM [2] [%] | displacement of [3H]CP-55,940 in the competitive radioligand screen [2] | Ki ([2]; CB2, full competition curves vs [3H]CP-55,940) [nM] |
| --- | --- | --- | --- | --- |
| Cc1ncc(/C=N/N=C2/Nc3ccccc3C(=O)N3CCC[C@@H]23)s1 [Compound 4d] | -28 | -33.6 | – | – |
| O=C1c2cc(Br)ccc2N/C(=N/N=C/c2cc3ccccc3s2)[C@@H]2CCCN12 [Compound 4i, (S,E)-11-[(Benzo[b]thiophen-2-ylmethylene)hydrazono]-7-bromo-pyrrolo[2,1-c][1,4] Benzodiazepine] | 49.8 | 36.4 | – | – |
| O=C1c2cc(Br)ccc2N/C(=N/N=C/c2csc3ccccc23)[C@@H]2CCCN12 [Compound 4j] | 66.8 | 65.2 | – | – |
| O=C1c2ccccc2N/C(=N/N=C/c2sc(Cl)nc2Cl)[C@@H]2CCCN12 [Compound 4g] | 24.2 | 29.3 | – | – |
| O=C1c2ccccc2N/C(=N/N=C/c2sc3ccccc3c2Cl)[C@@H]2CCCN12 [Compound 4m] | 5.22 | 50 | – | – |
| Cn1cc(/C=N/N=C2/Nc3ccccc3C(=O)N3CCC[C@@H]23)c2ccccc21 [Compound 4o] | 5.09 | 1.01 | – | – |

Other lines, results leading:

| inhibition at 10 µM [1] [%] | inhibition at 10 µM [2] [%] | displacement of [3H]CP-55,940 in the competitive radioligand screen [2] | Ki ([2]; CB2, full competition curves vs [3H]CP-55,940) [nM] | Structure (SMILES) |
| --- | --- | --- | --- | --- |
| 21.9 | 19.9 | – | – | Cc1ncsc1/C=N/N=C1/Nc2ccccc2C(=O)N2CCC[C@@H]12 [Compound 4e] |
| 77.2 | 51.7 | – | – | Cc1c(/C=N/N=C2/Nc3ccccc3C(=O)N3CCC[C@@H]23)sc2ccccc12 [Compound 4l] |
| -3.09 | -12.5 | – | – | O=C1c2ccccc2N/C(=N/N=C/c2ccc[nH]2)[C@@H]2CCCN12 [Compound 4a] |
| 36.9 | 61 | more than 60% | – | O=C1c2ccccc2N/C(=N/N=C/c2cc3ccccc3s2)[C@@H]2CCCN12 [Compound 4h, (S,E)-11-[2-(Benzo[b]thiophenylmethylene)hydrazono]-pyrrolo[2,1-c][1,4] Benzodiazepine] |
| -14 | -14.5 | – | – | Cn1ccnc1/C=N/N=C1/Nc2ccccc2C(=O)N2CCC[C@@H]12 [Compound 4b] |
| 55.3 | 95.6 | more than 60% | 137 | O=C1c2ccccc2N/C(=N/N=C/C23CC4CC(CC(C4)C2)C3)[C@@H]2CCCN12 [Compound 4q] |
| 1.75 | 3.72 | – | – | Nc1ncc(/C=N/N=C2/Nc3ccccc3C(=O)N3CCC[C@@H]23)s1 [Compound 4f] |
| 44.1 | 43.3 | – | – | O=C1c2ccccc2N/C(=N/N=C/c2nc3ccccc3s2)[C@@H]2CCCN12 [Compound 4n, (S,E)-11-[(Benzo[d]thiazol-2-ylmethylene)hydrazono]-pyrrolo[2,1-c][1,4] Benzodiazepine] |
| 0.25 | 3.06 | – | – | O=C1c2ccccc2N/C(=N/N=C/c2cncs2)[C@@H]2CCCN12 [Compound 4c, (S,E)-11-[(Thiazol-5-ylmethylene)hydrazono]-pyrrolo[2,1-c][1,4] Benzodiazepine] |
